Measured values reported in ChEMBL document CHEMBL3046213, “Repellent, insecticidal and phytotoxic activities of isoalantolactone from Inula racemosa” (Crop Prot, 2006).

What was measured:
Sitophilus oryzae [1] = experiment: Insecticidal activity against Sitophilus oryzae (rice weevil) assessed as mortality at 400 ug/g after 5 days by food poison technique relative to acetone-treated control; type: functional
Sitophilus oryzae [2] = experiment: Insecticidal activity against Sitophilus oryzae (rice weevil) assessed as mortality at 200 ug/g after 15 days by food poison technique relative to acetone-treated control; type: functional
Triticum aestivum [3] = experiment: Phytotoxicity in Triticum aestivum (wheat) assessed as shoot growth at 500 ug/ml pre-soaked for 60 min measured after 48 hr relative to acetone-treated control; type: organism-based; settings: in vivo
Triticum aestivum [4] = experiment: Phytotoxicity in Triticum aestivum (wheat) assessed as root growth at 500 ug/ml pre-soaked for 60 min measured after 72 hr relative to acetone-treated control; type: organism-based; settings: in vivo
Triticum aestivum [5] = experiment: Phytotoxicity in Triticum aestivum (wheat) assessed as root growth at 500 ug/ml pre-soaked for 30 min measured after 48 hr relative to acetone-treated control; type: organism-based; settings: in vivo
Sitophilus oryzae [6] = experiment: Insecticidal activity against Sitophilus oryzae (rice weevil) assessed as mortality at 3000 ug/g after 20 days by food poison technique relative to acetone-treated control; type: functional
Sitophilus oryzae [7] = experiment: Insecticidal activity against Sitophilus oryzae (rice weevil) assessed as mortality at 3000 ug/g after 10 days by food poison technique relative to acetone-treated control; type: functional
Triticum aestivum [8] = experiment: Phytotoxicity in Triticum aestivum (wheat) assessed as shoot growth at 500 ug/ml pre-soaked for 60 min measured after 72 hr relative to acetone-treated control; type: organism-based; settings: in vivo
Sitophilus oryzae [9] = experiment: Insecticidal activity against Sitophilus oryzae (rice weevil) assessed as mortality at 600 ug/g after 10 days by food poison technique relative to acetone-treated control; type: functional
Sitophilus oryzae [10] = experiment: Insecticidal activity against Sitophilus oryzae (rice weevil) assessed as mortality after 5 days by food poison technique; type: functional
Sitophilus oryzae [11] = experiment: Insecticidal activity against Sitophilus oryzae (rice weevil) assessed as mortality at 1000 ug/g after 10 days by food poison technique relative to acetone-treated control; type: functional
Sitophilus oryzae [12] = experiment: Repellent activity against Sitophilus oryzae (rice weevil) assessed as settling responses at 75 ug/g preincubated for 12 hr prior to inoculation measured after 24 hr by food preference chamber method (reference value: 49.45 +/- 2.65 %); type: functional
Triticum aestivum [13] = experiment: Phytotoxicity in Triticum aestivum (wheat) assessed as root growth at 500 ug/ml pre-soaked for 30 min measured after 120 hr relative to acetone-treated control; type: organism-based; settings: in vivo
Triticum aestivum [14] = experiment: Phytotoxicity in Triticum aestivum (wheat) assessed as shoot growth at 500 ug/ml pre-soaked for 30 min measured after 72 hr relative to acetone-treated control; type: organism-based; settings: in vivo
Triticum aestivum [15] = experiment: Phytotoxicity in Triticum aestivum (wheat) assessed as root growth at 500 ug/ml pre-soaked for 30 min measured after 96 hr relative to acetone-treated control; type: organism-based; settings: in vivo
Sitophilus oryzae [16] = experiment: Insecticidal activity against Sitophilus oryzae (rice weevil) assessed as mortality at 1000 ug/g after 15 days by food poison technique relative to acetone-treated control; type: functional
Sitophilus oryzae [17] = experiment: Insecticidal activity against Sitophilus oryzae (rice weevil) assessed as mortality at 400 ug/g after 20 days by food poison technique relative to acetone-treated control; type: functional
Sitophilus oryzae [18] = experiment: Insecticidal activity against Sitophilus oryzae (rice weevil) assessed as mortality at 1000 ug/g after 20 days by food poison technique relative to acetone-treated control; type: functional
Sitophilus oryzae [19] = experiment: Insecticidal activity against Sitophilus oryzae (rice weevil) assessed as mortality at 3000 ug/g after 5 days by food poison technique relative to acetone-treated control; type: functional
Sitophilus oryzae [20] = experiment: Insecticidal activity against Sitophilus oryzae (rice weevil) assessed as mortality at 600 ug/g after 5 days by food poison technique relative to acetone-treated control; type: functional
Sitophilus oryzae [21] = experiment: Insecticidal activity against Sitophilus oryzae (rice weevil) assessed as mortality at 1000 ug/g after 5 days by food poison technique relative to acetone-treated control; type: functional
Triticum aestivum [22] = experiment: Phytotoxicity in Triticum aestivum (wheat) assessed as shoot growth at 500 ug/ml pre-soaked for 60 min measured after 120 hr relative to acetone-treated control; type: organism-based; settings: in vivo
Triticum aestivum [23] = experiment: Phytotoxicity in Triticum aestivum (wheat) assessed as germination rate at 500 ug/ml pre-soaked for 60 min measured after 72 hr relative to acetone-treated control; type: organism-based; settings: in vivo
Sitophilus oryzae [24] = experiment: Insecticidal activity against Sitophilus oryzae (rice weevil) assessed as mortality at 2000 ug/g after 10 days by food poison technique relative to acetone-treated control; type: functional
Sitophilus oryzae [25] = experiment: Insecticidal activity against Sitophilus oryzae (rice weevil) assessed as mortality at 0.05 ug/g after 20 days by food poison technique relative to acetone-treated control; type: functional
Triticum aestivum [26] = experiment: Phytotoxicity in Triticum aestivum (wheat) assessed as germination rate at 500 ug/ml pre-soaked for 60 min measured after 96 hr relative to acetone-treated control; type: organism-based; settings: in vivo
Triticum aestivum [27] = experiment: Phytotoxicity in Triticum aestivum (wheat) assessed as root growth at 500 ug/ml pre-soaked for 60 min measured after 48 hr relative to acetone-treated control; type: organism-based; settings: in vivo
Triticum aestivum [28] = experiment: Phytotoxicity in Triticum aestivum (wheat) assessed as germination rate at 500 ug/ml pre-soaked for 30 min measured after 96 hr relative to acetone-treated control; type: organism-based; settings: in vivo
Sitophilus oryzae [29] = experiment: Insecticidal activity against Sitophilus oryzae (rice weevil) assessed as mortality at 3000 ug/g after 15 days by food poison technique relative to acetone-treated control; type: functional
Sitophilus oryzae [30] = experiment: Repellent activity against Sitophilus oryzae (rice weevil) assessed as settling responses at 50 ug/g preincubated for 12 hr prior to inoculation measured after 24 hr by food preference chamber method (reference value: 49.45 +/- 2.65 %); type: functional
Sitophilus oryzae [31] = experiment: Insecticidal activity against Sitophilus oryzae (rice weevil) assessed as mortality at 200 ug/g after 20 days by food poison technique relative to acetone-treated control; type: functional

With `C=C1C(=O)O[C@@H]2C[C@@]3(C)CCCC(=C)[C@@H]3C[C@H]12` [ISOALANTOLACTONE] the mortality (Sitophilus oryzae [1]) was 19.04%, the mortality (Sitophilus oryzae [2]) was 17.95% and the Activity (Triticum aestivum [3]) was 53.7%. For the same molecule, the Activity (Triticum aestivum [4]) was 63.7%, the Activity (Triticum aestivum [5]) was 100.7% and the mortality (Sitophilus oryzae [6]) was 100%. For the same molecule, the mortality (Sitophilus oryzae [7]) was 100%, the Activity (Triticum aestivum [8]) was 51.7% and the mortality (Sitophilus oryzae [9]) was 55.38%. The LC50 (Sitophilus oryzae [10]) was 1234.57 µg/g, the mortality (Sitophilus oryzae [11]) was 64.28% and the Activity (Sitophilus oryzae [12]) was 12.41%. The Activity (Triticum aestivum [13]) was 101.2%, the Activity (Triticum aestivum [14]) was 102% and the Activity (Triticum aestivum [15]) was 99.1%. For the same molecule, the mortality (Sitophilus oryzae [16]) was 69.23%, the mortality (Sitophilus oryzae [17]) was 35.91% and the mortality (Sitophilus oryzae [18]) was 74.36%. For the same molecule, the mortality (Sitophilus oryzae [19]) was 100%, the mortality (Sitophilus oryzae [20]) was 33.33% and the mortality (Sitophilus oryzae [21]) was 42.86%. For the same molecule, the Activity (Triticum aestivum [22]) was 63.5%, the Activity (Triticum aestivum [23]) was 84.6% and the mortality (Sitophilus oryzae [24]) was 100%. It also gave a mortality (Sitophilus oryzae [25]) of 100%, an Activity (Triticum aestivum [26]) of 82.5% and an Activity (Triticum aestivum [27]) of 46%. For the same molecule, the Activity (Triticum aestivum [28]) was 100%, the mortality (Sitophilus oryzae [29]) was 100% and the Activity (Sitophilus oryzae [30]) was 12.87%. For the same molecule, the mortality (Sitophilus oryzae [31]) was 17.95%.
